Data as given in PubChem BioAssay AID179 (DTP/NCI, 2004).
Values joined by “and” are separate entries in the source; they are usually repeats but may differ in a detail not shown here. Equal entries are not always repeated. Active and inactive are the calls of the source.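 Rule for the calls: active = compounds giving half or more protection of infected cells from virus-caused growth loss, again on retest; inactive = the rest.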

System: CEM cells HIV-1 protection, formazan growth assay
Assay: NCI AIDS Antiviral Assay
Settings: for IC50: measured here: growth of uninfected CEM cells
In short: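 Human CEM cells, uninfected and HIV-1-infected, exposed to five drug concentrations; growth measured by soluble formazan assay and scored as percent protection from infection, with protecting compounds retested.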

Structure (SMILES) | EC50 | IC50 | outcome
Clc1ccc(C2c3ccccc3-c3nc4ccccc4n32)cc1 (stereo not given) | > 200 µM | > 200 µM | –
C/C(=N\O)C(CN(C)C)C(c1ccccc1)c1c(O)c2ccccc2oc1=O (stereo not given) | > 32.4 µM | 21.9 µM | –
O=C(CCC(NC(=O)OCc1ccccc1)C(=O)OCc1ccccc1)Nc1cccc(OCc2ccccc2)c1 (stereo not given) | > 200 µM | 35.5 µM | –
CC1=C(C(=O)Nc2ccc(C)cc2)C(c2cccc([N+](=O)[O-])c2)C(C(=O)Nc2ccc(C)cc2)=C(C)N1 | > 14.5 µM | > 14.5 µM | –
N#CC12C(=O)N3C(=NC(c4ccccc4)NC3c3ccccc3)C1(C#N)C(c1ccccc1)NC1=C2CCC1 (stereo not given) | > 200 µM | > 200 µM | –
COc1ccc(NCC/C=C\[Si](C)(C)C)cc1 | – | – | inactive
COc1cc(O)c2c(c1C)C(C)(O)c1c(C)coc1C2=O (stereo not given) | – | – | inactive
CCC1CC2CN3CCc4c([nH]c5c(-c6c(OC)ccc7c8c([nH]c67)[C@]6(C(=O)OC)CC7CC(CC)C6N(CC8)C7)c(O)ccc45)[C@](C(=O)OC)(C2)C13 (stereo not given in full) | > 200 µM | 12.9 µM | –
CC(C)(CCCCC(C)(C)[N+](C)(C)C)[N+](C)(C)C | > 200 µM | > 200 µM | –
O/N=C1/CCCc2nonc21 | > 200 µM | > 200 µM | –
COc1ccc(CC2(Cc3ccc(OC)cc3)CCOC2=O)cc1 | > 21.9 µM | > 21.9 µM | –
Cc1cn([C@@H]2C[C@@H]2CO)c(=O)[nH]c1=O | – | – | inactive
c1ccc(-c2nnc3oc(-c4cccs4)nn23)cc1 | > 100 µM | > 100 µM | –
CSCCC(N)CO (stereo not given) | > 200 µM | > 200 µM | –
CC(O)(P(=O)(O)O)P(=O)(O)O.[NH-]CC[NH-].[NH-]CC[NH-].[Pd+2].[Pd+2] | > 200 µM | 87.1 µM | –
CCN(CC)c1ccc(N=Nc2ccc(-c3nc4ccc[n+](C)c4o3)cc2)cc1 | > 2.04 µM | > 2.04 µM | –
COC1=C(N)C(=O)c2nc(C)ccc2C1=O | – | – | inactive
O=C(CN1CCOCC1)Nc1ccc2c(c1)C1Oc3ccccc3CC1CO2 (stereo not given) | – | – | inactive
S=C(N/N=C/c1cccc2ccccc12)Nc1c(Cl)cccc1Cl | > 200 µM | 102 µM | –
CC(CN1NC12CCCC2)N1NC12CCCC2 (stereo not given) | > 200 µM | > 200 µM | –
O/N=C1/CCCC/C1=C/c1ccc(Cl)cc1 | – | – | inactive
COc1cc(C2C(Cl)C(=O)N2NC(=O)c2ccc(NC(C)=O)cc2)cc(Br)c1O (stereo not given) | > 200 µM | 162 µM | –
NC(=O)C(=CNC(=S)c1cccnc1)C(N)=O | > 200 µM | 74.1 µM | –

Structure (SMILES) | EC50 | IC50 | outcome
Cc1c(N=Nc2ccc([N+](=O)[O-])cc2)nc2scc(-c3ccccc3)n12 | > 14.5 µM | > 14.5 µM | –
CC1(C)CSCC(C)(C)C(=N/N)/C1=N\N | > 200 µM | > 200 µM | –
O=C1CSC(/C=C/c2ccccc2)N1c1ccc(-c2ccc(-n3c(-c4ccccc4)nc4ccccc4c3=O)cc2)cc1 (stereo not given) | > 200 µM | 28.2 µM | –
CCOc1cc2c(cc1Cc1ccc(OC)cc1)OCO2 | > 91.2 µM | 0.631 µM | –
O=C1C=CC(=O)c2cc(Sc3ccccc3)c(=O)ccc21 | > 123 µM | 1.26 µM | –
CC1C(=O)N(C)C2(CO)C(=O)O[C@H](C)C12O (stereo not given in full) | – | – | inactive
COC(=O)[C@]1(Cc2ccc3ccccc3c2)CCCCCCN1C(=O)c1ccccc1 | – | – | inactive
C/C=C/C1C=Cc2ccccc2C1(C)C1=NC(C)(C)CO1 (stereo not given) | > 25.7 µM | > 25.7 µM | –
CCC(=O)N(c1ccccc1)C(C)CN1CCC(O)(c2ccccc2)CC1 (stereo not given) | > 200 µM | > 200 µM | –
CC(=O)NCC1(c2ccccc2)CCN(CC2COc3ccccc3O2)CC1 (stereo not given) | > 200 µM | > 200 µM | –
C/C(CC(=O)Nc1ccc(C)cc1)=N\NC(N)=S | > 490 µM | 245 µM | –
COC(=O)CN(CC1O[C@@H]2OC(C)(C)O[C@@H]2C1NC(C)=O)C(=O)OCc1ccccc1 (stereo not given in full) | > 200 µM | > 200 µM | –
O=C1c2cccc3cccc(c23)C(=O)N1c1ccc([N+](=O)[O-])cc1[N+](=O)[O-] | > 200 µM | 120 µM | –
CC(C)(C)OC(=O)CN1CCNCCNCC1 | > 100 µM | > 100 µM | –
[N-]=[N+]=CC(=O)C1(C(=O)C=[N+]=[N-])CC1 | > 251 µM | 240 µM | –
Nc1c(S(=O)(=O)O)cc2cc(S(=O)(=O)O)ccc2c1N=Nc1ccc(/C=C/c2ccc(N=Nc3c(N)c(S(=O)(=O)O)cc4cc(S(=O)(=O)O)ccc34)cc2S(=O)(=O)O)c(S(=O)(=O)O)c1 | 2.82 µM | 79.4 µM | –
Cc1ccccc1-c1nc(/C=C2\C(=O)C=Cc3ccccc32)c(O)o1 | > 200 µM | > 200 µM | –
O=C(O)C12C3C4(C(=O)O)C1C1(C(=O)O)C2C3(C(=O)O)C41 (stereo not given) | > 200 µM | > 200 µM | –
Clc1nc2cc3nc(Cl)c(Cl)nc3cc2nc1Cl | > 50.1 µM | 33.1 µM | –
O=P1(C(c2ccccc2)c2ccccc2)OC2CC(Cl)CC(C2)O1 (stereo not given) | > 7.24 µM | > 7.24 µM | –
NC1=CN(CCCO)C2=N/C(=C\c3ccco3)C(=O)N12 | – | – | inactive
O=S(=O)(O)OCCOc1ccc(S(=O)(=O)c2ccc(OCCOS(=O)(=O)O)cc2)cc1 | > 200 µM | > 200 µM | –
CC12CCC3C4CCC(=O)C(CCC(=O)O)=C4CCC3(CO1)C2 (stereo not given) | > 794 µM | > 794 µM | –

Structure (SMILES) | EC50 | IC50 | outcome
Cc1cc(C)n(C2=NS(=O)(=O)c3ccccc3N2C)n1 | > 123 µM | > 123 µM | –
Nc1ccn(C2SC(CO)CC2F)c(=O)n1 (stereo not given) | > 25.1 µM | > 25.1 µM | –
CCCCc1ccc(Nc2nc(OC)c3ncn(C4CC(O)C(CO)O4)c3n2)cc1 (stereo not given) | > 200 µM | 15.1 µM | –
O=C(O)c1cc2oc(-c3ccccc3)cc2[nH]1 | > 219 µM | 155 µM | –
Cc1cn([C@@H]2C[C@H]2CO)c(=O)[nH]c1=O | – | – | inactive
C=C1C(=O)OC2(C)CCC1CC1OC1(C)CCC=C(C)CCC2O (stereo not given) | > 389 µM | 32.4 µM | –
C=CCCCCCCCCCOC1C=CC(OC(C)=O)C(COC(C)=O)O1 (stereo not given) | > 200 µM | 63.1 µM | –
O=C(C[P+](c1ccccc1)(c1ccccc1)c1ccccc1)c1ccc(Br)cc1 | > 200 µM | 14.8 µM | –
O/N=C1/C(=C/c2ccc3c(c2)OCO3)CCCC1C(NO)c1ccc2c(c1)OCO2 (stereo not given) | > 12.6 µM | > 12.6 µM | –
CN1c2ccccc2C(=O)N2C(=O)CCC21C (stereo not given) | > 200 µM | > 200 µM | –
C=C(C)CCC(=O)[C@](C)(O)[C@H]1[C@H](O)C[C@@]2(C)[C@@H]3CCc4c(cc(OC5OC(CO)C(O)C(O)C5O)c(O)c4C)C3(C)C(=O)C[C@]12C (stereo not given in full) | > 200 µM | > 200 µM | –
O=c1c2ccccc2oc2cc(Br)ccc12 | > 26.3 µM | > 26.3 µM | –
CCOC(=O)C1(C(=O)OCC)COS(=O)OC1 | > 186 µM | 97.7 µM | –
COc1ccc2nc3ccc(OC)cc3c(SCCO)c2c1 | > 200 µM | 8.51 µM | –
CN(C)CC1CCC/C1=N\O (stereo not given) | > 1580 µM | 1380 µM | –
COC(=O)/C=C(/C=C1/C(C#N)=C(N)N(c2ccc(Cl)cc2)C1(C)/C(=C/C(=O)OC)C(=O)OC)C(=O)OC (stereo not given) | > 200 µM | 23.4 µM | –
Cc1ccc(N/N=c2\c3nc4ccccc4nc2n(-c2ccccc2C)c(=S)n3-c2ccc(C)cc2)cc1 | – | – | inactive
CNc1cc(Cl)ccc1S(=O)(=O)c1ccccc1[N+](=O)[O-] | 5.37 µM | > 200 µM | –
c1ccc(N=C2c3ccccc3C3=NCCCN32)cc1 | > 100 µM | > 100 µM | –
O=[N+]([O-])c1cccc(-c2csc(N=Nc3c(O)[nH]c4ccccc34)n2)c1 | > 200 µM | > 200 µM | –
N/N=C1/C(=N/O)CCc2nonc21 | > 200 µM | > 200 µM | –
CCC(COC(/C=C1/C=CC(=O)O1)COC(=O)c1ccccc1)c1ccccc1 (stereo not given) | > 115 µM | 77.6 µM | –
CN(C)CCCC12OC(c3ccccc31)C(O)c1ccccc12 (stereo not given) | > 200 µM | > 200 µM | –

Structure (SMILES) | EC50 | IC50 | outcome
N#CC(=N)c1ncn(-c2ccc(N)cc2)c1N | > 200 µM | 195 µM | –
[O-][n+]1nc2ccccc2c2ccccc21 | > 347 µM | 141 µM | –
OCC1NC(CC2OC(CO)C(O)C(O)C2O)C(O)C(O)C1O (stereo not given) | > 200 µM | > 200 µM | –
NC1=C(Br)C(=O)c2ncccc2C1=O | – | – | inactive
C/C(=N\O)c1ccc(OCc2cc(C(F)(F)F)cc(C(F)(F)F)c2)cc1 | > 200 µM | 40.7 µM | –
CCC1CCC23OOC(C)(CCC2C1)O[C@@H]3OC (stereo not given in full) | > 49 µM | > 49 µM | –
Nc1ccn(CC2OCC(CO)O2)c(=O)n1 (stereo not given) | > 3470 µM | 2950 µM and 3020 µM | –
COc1ccccc1C=C(C#N)C#N | > 977 µM | 229 µM | –
N#C/C(=C\c1cccc(C#N)c1)C(=O)c1ccccc1 | > 115 µM | 15.8 µM | –
COc1nc(NC2OC(CO)C(O)C2O)cc(=O)n1C (stereo not given) | – | – | inactive
CCOC(=O)C(=CN1C/C(=C/C(C)=C/c2ccccc2)SC1=S)C(=O)OCC | > 100 µM | 18.2 µM | –
CC1(C)OC2[C@@H](CO[C@@]3([C@@H](O)CCO)OC(C)(C)O[C@@H]23)O1 (stereo not given in full) | > 200 µM | > 200 µM | –
OCC1OC2OC3C(CO)OC(OC4C(CO)OC(OC5C(CO)OC(OC6C(CO)OC(OC7C(CO)OC(OC1C(O)C2O)C(O)C7O)C(O)C6O)C(O)C5O)C(O)C4O)C(O)C3O (stereo not given) (tested in a mixture with another compound) | > 200 µM | > 200 µM | –
CCOC(=O)c1c(Br)c(-c2ccc(Br)cc2)c(Br)n1C | > 100 µM | 43.7 µM | –
CCN(CC)C(=S)SS(=O)(=O)c1ccc([N+](=O)[O-])cc1 | > 200 µM | 19.1 µM | –
CCCCCC(=O)NC(=S)Nc1nn[nH]n1 | > 200 µM | > 200 µM | –
COCOc1ccc(C(=O)Oc2cccc3c2OC(C)(C)O3)c(OCOC)c1 | > 200 µM | 35.5 µM | –
COC(=O)C(=O)C(C(=O)C(=O)Nc1ccccc1C(C)=O)c1nc2ccc(C(=O)c3ccccc3)cc2[nH]c1=O (stereo not given) | > 93.3 µM | 55 µM | –
CCOC(=O)c1cn(CC)c2ccc3c(c2c1=O)S(=O)(=O)C=C3 | > 200 µM | 29.5 µM | –
COc1cc(C(Cc2ccccc2)NC(C)=O)oc(=O)c1 (stereo not given) | > 871 µM | 155 µM | –
